Results: US20260144783A1, “COMPOSITION FOR PREVENTING OR TREATING PERIPHERAL NEUROPATHY, CONTAINING ISOQUINOLINE DERIVATIVE AS ACTIVE INGREDIENT” (ALTMEDICAL CO., LTD., priority 2022, published 2026)
Where two headings read alike, the source gives them in different places.

Assays:
[1] = test system: BEAS-2B cell line, in which PINK1 was knocked down (shPINK1); test: mitophagy activity in PINK1 knockdown cell line (FACS); type: cell-based, human; settings: CCCP 10 μM or CD1-012 15 μM, 18 hours
Method: In this example, it was confirmed whether the mitophagy activation function of the isoquinoline derivative according to the present invention is dependent on the PINK1-Parkin pathway. To this end, after a BEAS-2B cell line, in which PINK1 was knocked down using short hairpin RNA (shRNA), was treated with CCCP (10 μM) of Comparative Example 1 or CD1-012 (15 μM) for 18 hours, the mitophagy activity of each sample was analyzed using flow cytometry (FACS).

[2] = test system: mitochondrial reactive oxygen species (ROS); test: MitoSOX assay; type: cell-based; settings: CD1-012 10 μM or 15 μM, CCCP 10 μM, 24 hours
Method: (§1) It was confirmed whether the isoquinoline derivative according to the present invention induces mitochondrial dysfunction, similar to CCCP. To this end, the CD1-012 (10 μM or 15 μM) and CCCP (10 μM) were treated for 24 hours, and the mitochondrial membrane potential and mitochondrial reactive oxygen species (ROS) levels in each sample were analyzed. Mitochondrial membrane potential was analyzed using the TMRM (tetramethylrhodamine methyl ester) assay, and mitochondrial ROS levels were analyzed using the MitoSOX assay.

[3] = test system: mitochondrial membrane potential; test: TMRM assay; type: cell-based; settings: CD1-012 10 μM or 15 μM, CCCP 10 μM, 24 hours
Method: as §1

[4] = test system: third-instar larvae of Drosophila (w1118); type: in vivo; settings: for withdrawal latency: heat probe 40° C.
Method: To this end, thermal sensitivity was measured in a Drosophila model of paclitaxel-induced peripheral neuropathy. […] As a result, after treatment with paclitaxel, hyperalgesia was observed, as indicated by a 35% reduction in withdrawal latency from 6.9 seconds to 4.5 seconds (FIG. 8A). Subsequently, to confirm the therapeutic effect of CD1-012 on peripheral neuropathy, Drosophila were treated with CD1-012 at a concentration of 1 mM along with paclitaxel (20 μM).
(§2) Subsequently, to understand the molecular mechanism underlying the therapeutic effect of CD1-012 on chemotherapy-induced peripheral neuropathy, the therapeutic effect of CD1-012 was examined after suppressing the expression of ULK1 or Rap9, which are essential genes in the recently identified alternative mitophagy pathway. To this end, a heat probe assay was performed using a 40° C. thermal probe after co-treating paclitaxel (20 μM) and CD1-012 (1 mM) in Drosophila expressing shULK1 or shRap9 in C4da sensory neurons, as well as in control Drosophila (wild-type). As a result, in the control group, the peripheral neuropathy symptoms (reduction in withdrawal latency) induced by paclitaxel were recovered by CD1-012 treatment.

[5] = test system: Drosophila expressing shATG5 in C4da sensory neurons; test: heat probe assay, ATG5 suppressed; type: in vivo; settings: ATG5 expression suppressed; paclitaxel 20 μM and CD1-012 1 mM, 40° C. probe
Method: (§3) In this example, an experiment was conducted to verify the therapeutic mechanism of the compound according to the present invention on peripheral neuropathy, particularly chemotherapy-induced peripheral neuropathy. To this end, the therapeutic effect of CD1-012 on peripheral neuropathy was evaluated using animal models in which the expression of ATG5 or ATG7, essential genes in the canonical mitophagy pathway, the most representative mitophagy regulatory pathway, was suppressed. Specifically, paclitaxel (20 μM) and CD1-012 (1 mM) were co-administered to Drosophila expressing shATG7 or shATG5 in C4da sensory neurons, as well as to control flies (wild-type), and a heat probe assay was conducted using a 40° C. thermal probe.

Drosophila larvae = test: larval size after treatment; type: in vivo
Method: In addition, to evaluate whether the compound according to the present invention affects the growth of Drosophila, the size of larvae was measured after treatment with paclitaxel and CD1-012.

BEAS-2B cell line [6] = test: autophagy activity, Keima fluorescent protein, confocal microscope; type: cell-based, human; settings: 15 μM 18 h, BEAS-2B expressing Keima, FIG. 4B
Method: (§4) It was confirmed whether CD1-012 synthesized in Example 1 specifically increases only mitophagy activity. To this end, the BEAS-2B cell line expressing mt-Keima was treated with CD1-012 (15 μM) or Comparative Example 1 (CCCP, 10 μM) for 18 hours, and mitophagy activity was analyzed using a confocal microscope. Additionally, to measure autophagy activity, the BEAS-2B cell line expressing Keima fluorescent protein was incubated in Hanks' balanced salt solution (HBSS) for 3 hours to induce a starvation condition (starv.), and the results were compared with samples treated with CD1-012 (15 μM) for 18 hours using a confocal microscope.

[7] = test system: chemotherapy-induced peripheral neuropathy mouse model; test: nerve distribution in the footpad (IENFs), peripheral neuropathy mouse model; type: in vivo
SH-SY5Y cell line = test: mitophagy activity, mt-Keima, flow cytometry (FACS); type: cell-based, human; settings: SH-SY5Y expressing mt-Keima
Method: (§5) It was confirmed whether CD1-012 synthesized in Example 1 increases mitophagy activity in various cell lines. To this end, CD1-012 and Comparative Example 1 (CCCP) were treated in the SH-SY5Y cell line, a human neuroblastoma cell line expressing mt-Keima fluorescent protein, and in the HeLa-Parkin cell line, a HeLa cervical cancer cell line expressing Parkin (E3 ligase). Following this treatment, the mitophagy activity of each sample was analyzed using flow cytometry (FACS), and the results are shown in FIGS. 2A to 2B.

[8] = test system: Drosophila expressing shATG7 in C4da sensory neurons; test: heat probe assay, ATG7 suppressed; type: in vivo; settings: ATG7 expression suppressed; paclitaxel 20 μM and CD1-012 1 mM, 40° C. probe
Method: as §3

[9] = test system: C4da sensory neurons (ppk1a>CD4-tdTom Drosophila); test: morphology of dendritic branches of C4da sensory neurons; type: in vivo
Source text: To analyze the morphological changes in the dendritic branches of C4da sensory neurons, transgenic Drosophila expressing the fluorescent protein CD4-tdTomato specifically in C4da neurons (ppk^1a>CD4-tdTom) was generated. After treatment of the transgenic flies with paclitaxel and CD1-012, morphological changes in the dendritic branches of C4da sensory neurons were examined. As a result, treatment with paclitaxel increased the total dendrite length and the number of dendritic branches by 22% and 33%, respectively, confirming that morphological changes in the sensory neurons were induced.

[10] = test system: Drosophila expressing shRap9 in C4da sensory neurons; test: heat probe assay, Rap9 suppressed; type: in vivo; settings: Rap9 expression suppressed; paclitaxel 20 μM and CD1-012 1 mM
Method: as §2

[11] = test system: chemotherapy-induced peripheral neuropathy mouse model; test: vonfrey hair test, peripheral neuropathy mouse model; type: in vivo; settings: mice
Method: To more clearly verify the therapeutic effect of the isoquinoline derivative of the present invention on peripheral neuropathy, particularly chemotherapy-induced peripheral neuropathy, experiments were conducted using a peripheral neuropathy mouse model. Specifically, peripheral neuropathy was induced in mice by administration of a chemotherapeutic agent (paclitaxel), and CD1-012 was co-administered at a dose of 10 mg/kg or 20 mg/kg. Sensitivity to pain was then analyzed using the vonfrey hair test.

[12] = test system: Drosophila expressing shULK1 in C4da sensory neurons; test: heat probe assay, ULK1 suppressed; type: in vivo; settings: ULK1 expression suppressed; paclitaxel 20 μM and CD1-012 1 mM
Method: as §2

BEAS-2B cell line [13] = test: mitophagy activity, mt-Keima fluorescent protein (FACS, confocal microscope, mito-YFP); type: cell-based, human
Method: To analyze the mitophagy-promoting activity effect of the CD1-012 synthesized in the Example 1, the BEAS-2B cell line, which is a human normal lung cell line, was induced to express the mt-Keima fluorescent protein. Following this, the CD1-012 (15 μM) and the compound of Comparative Example 1, CCCP (10 μM), were treated for 24 hours. After the treatment, the mitophagy activity of each sample was measured, and the results were represented in FIGS. 1A to IC.
Specifically, FIG. 1A represents the analysis results using flow cytometry (FACS) (treatment of CD1-012 at 15 µM for 24 hours), FIG. 1B represents the analysis results using a confocal microscope (treatment of CD1-012 at 15 μM for 18 hours), and FIG. 1C represents the measurement results of the quantitative changes in the mitochondria using a fluorescent protein, mito-YFP, which includes a targeting sequence to transport protein to the mitochondria (treatment of CD1-012 at 20 μM for 24 hours).
It was confirmed whether CD1-012 synthesized in Example 1 promotes mitophagy activity in a concentration- and time-dependent manner. To this end, the CD1-012 was treated at various concentrations or at a fixed concentration (15 μM) for different treatment durations in the BEAS-2B cell line expressing mt-Keima, and mitophagy activity was measured using a flow cytometer.
as §4
To this end, the human normal lung cell line BEAS-2B, expressing mt-Keima fluorescent protein, was treated with CD1-012, Comparative Example 2 (palmatine), or Comparative Example 3 (berberine) at various concentrations, and the mitophagy-inducing activity of each sample was compared.

HeLa-Parkin cell line = test: mitophagy activity, flow cytometry (FACS); type: cell-based
Method: as §5

[14] = CD1-012 co-administered with paclitaxel
[15] = 15 μM, BEAS-2B mt-Keima, FIG. 3B
[16] = paclitaxel treatment, C4da sensory neurons

## N#CC(C#N)=NNc1cccc(Cl)c1 [CCCP, Carbonyl cyanide 3-chlorophenylhydrazone, reference compound]
[1]
  mitophagy activation in PINK1 knockdown cell line (shPINK1) compared to control: significantly decreased
[2]
  mitochondrial ROS levels: significantly increased
[3]
  mitochondrial membrane potential: significantly reduced

## Oc1cc2c(cc1O)-c1cc3ccc(O)c(O)c3c[n+]1CC2 [CD1-012, 2,3,9,10-tetrahydroxy-5,6-dihydroisoquinolino[3,2-a]isoquinolin-7-ium bromide]
[4]; CD1-012 1 mM along with paclitaxel 20 μM
  withdrawal latency as percent of the wild-type level: 91%
[4]; CD1-012 1 mM along with paclitaxel 20 μM, paclitaxel alone 4.5 seconds
  withdrawal latency: 6.3 s
[4]; control Drosophila (wild-type), paclitaxel 20 μM and CD1-012 1 mM, 40° C. probe
  peripheral neuropathy symptoms (reduction in withdrawal latency) induced by paclitaxel: recovered
[5]
  therapeutic effect on chemotherapy-induced peripheral neuropathy (withdrawal latency): similarly observed
Drosophila larvae; in vivo
  reduction in larval size compared to the untreated control group: ~10%
BEAS-2B cell line [6]
  autophagy activity compared to the untreated control group: no significant difference
[7]; mice treated with CD1-012 and paclitaxel, FIG. 12B
  number of peripheral nerves (intraepidermal nerve fibers: IENFs) in the footpad: recovery to normal levels
[1]
  mitophagy activation in PINK1 knockdown cell line (shPINK1) compared to control: did not show a significant difference
SH-SY5Y cell line
  mitophagy activity compared to the control group (Con): significantly increased
[8]
  therapeutic effect on chemotherapy-induced peripheral neuropathy (withdrawal latency): similarly observed
[9]; [14]
  paclitaxel-induced increase in dendrite length: significantly suppressed
  paclitaxel-induced increase in number of branches: significantly suppressed
[10]
  therapeutic effect on paclitaxel-induced peripheral neuropathy (withdrawal latency): completely abolished
[11]; CD1-012 10 mg/kg or 20 mg/kg co-administered with paclitaxel, FIG. 12A
  hyperalgesic symptoms (sensitivity to pain): significant improvement
[12]
  therapeutic effect on paclitaxel-induced peripheral neuropathy (withdrawal latency): completely abolished
[2]
  mitochondrial ROS levels: no increase
[3]
  mitochondrial membrane potential: no decrease
BEAS-2B cell line [13]; 15 μM 24 h, CCCP 10 μM
  mitophagy activity compared with CCCP-treated sample (FIG. 1A, FACS): increased as significantly as
BEAS-2B cell line [13]; [15]
  treatment time after which mitophagy activity began to significantly increase: 3 h
  treatment time at which mitophagy activity reached its maximum level: 18 h
BEAS-2B cell line [13]; BEAS-2B mt-Keima, FIG. 5
  concentration at which mitophagy activity reached its maximum (comparable level): 10 µM
  mitophagy-inducing activity relative to berberine: approximately 8 times
  mitophagy-inducing activity relative to palmatine: approximately 40 times
BEAS-2B cell line [13]; BEAS-2B mt-Keima, flow cytometer, FIG. 3A
  concentration at which mitophagy activity began to significantly increase compared to untreated control: ≥ 7.5 µM
BEAS-2B cell line [13]; BEAS-2B mt-Keima, CD1-012 15 μM 24 h FACS, 15 μM 18 h confocal, 20 μM 24 h mito-YFP
  mitophagy activity compared to the untreated control group (Con): significant increase
BEAS-2B cell line [13]; up to the maximum treatment concentration of 17.5 μM, FIG. 3A
  mitophagy activity, concentration dependence: continued to increase in a concentration-dependent manner
HeLa-Parkin cell line
  mitophagy activity compared to the control group (Con): significantly increased

## COc1ccc2cc3[n+](cc2c1OC)CCc1cc2c(cc1-3)OCO2 [berberine, Berberine, reference compound]
BEAS-2B cell line [13]; BEAS-2B mt-Keima, FIG. 5
  concentration at which mitophagy activity reached its maximum (comparable level): 80 µM

## CC(=O)O[C@H]1C(=O)[C@@]2(C)[C@H]([C@H](OC(=O)c3ccccc3)[C@]3(O)C[C@H](OC(=O)[C@H](O)[C@@H](NC(=O)c4ccccc4)c4ccccc4)C(C)=C1C3(C)C)[C@]1(OC(C)=O)CO[C@@H]1C[C@@H]2O [paclitaxel, reference compound]
[4]; paclitaxel 20 μM 48 hours alone, from 6.9 seconds to 4.5 seconds
  reduction in withdrawal latency: 35%
[4]; paclitaxel 20 μM 48 hours alone, untreated 6.9 seconds
  withdrawal latency: 4.5 s
Drosophila larvae; Drosophila larvae, FIG. 8B
  reduction in larval size compared to the untreated control group: ~28%
[7]; mice, paclitaxel alone
  number of peripheral nerves (intraepidermal nerve fibers: IENFs) in the footpad: reduced
[9]; [16]
  increase in number of dendritic branches: 33%
  increase in total dendrite length: 22%
[11]; paclitaxel alone
  pain sensitivity: increased

## COc1cc2c(cc1OC)-c1cc3ccc(OC)c(OC)c3c[n+]1CC2 [palmatine, Palmatine, reference compound]
BEAS-2B cell line [13]; BEAS-2B mt-Keima, FIG. 5
  concentration at which mitophagy activity reached its maximum (comparable level): 400 µM
